Patent US20200038414A1, “METHODS OF TREATING CONSTIPATION USING AMINOSTEROL COMPOSITIONS” (Enterin, Inc., priority 2018, published 2020)

Legend:
[1] = tested on: PD patients with constipation; assay: Phase 2 trial Stage 1: prokinetic response to single escalating oral doses; format: in vivo, human; conditions: Stage 1, single oral dose
Excerpt: Tolerability limits included diarrhea or vomiting.

[2] = tested on: PD patients with constipation; assay: Phase 2 trial Stage 2: adverse events; format: in vivo, human
Description: In Stage 2, 34 patients were evaluated.

[3] = Stage 2, dosed 34, unrelated to ENT-01

Structure (SMILES): CC(C)[C@@H](CC[C@@H](C)[C@H]1CC[C@H]2[C@@H]3[C@H](O)C[C@H]4C[C@@H](NCCCNCCCCN)CC[C@]4(C)[C@H]3CC[C@]12C)OS(=O)(=O)O (single isomer, unassigned) [squalamine (ENT-01)]
- cumulative prokinetic response rate (patients with a CSBM within 24 hours of dosing) ([1]; 25 mg): 25%
- cumulative prokinetic response rate (patients with a CSBM within 24 hours of dosing) ([1]; 200 mg (maximum)): 80%
- patients with diarrhea ([2]; Stage 2, 15/34): 44%
- patients who withdrew during dosing because of diarrhea ([2]; Stage 2, 34 dosed): 2
- adverse event: Abdominal pain, Mild ([2]; Stage 2, dosed 34): 4 n
- adverse event: Abdominal pain, Moderate ([2]; Stage 2, dosed 34): 2 n
- adverse event: Diarrhea, Mild ([2]; Stage 2, dosed 34): 12 n
- adverse event: Diarrhea, Moderate ([2]; Stage 2, dosed 34): 2 n
- adverse event: Diarrhea, Severe ([2]; Stage 2, dosed 34): 1 n
- adverse event: Difficulty falling asleep, Mild ([2]; Stage 2, dosed 34): 1 n
- adverse event: Difficulty falling asleep, Moderate ([2]; Stage 2, dosed 34): 0 n
- adverse event: Dizziness, Mild ([2]; Stage 2, dosed 34): 7 n
- adverse event: Dizziness, Moderate ([2]; Stage 2, dosed 34): 1 n
- adverse event: Eye infection, Mild ([2]; Stage 2, dosed 34): 1 n
- adverse event: Eye infection, Moderate ([2]; Stage 2, dosed 34): 0 n
- adverse event: Flatulence, Mild ([2]; Stage 2, dosed 34): 1 n
- adverse event: Flatulence, Moderate ([2]; Stage 2, dosed 34): 0 n
- adverse event: Headache, Mild ([2]; Stage 2, dosed 34): 3 n
- adverse event: Headache, Moderate ([2]; Stage 2, dosed 34): 0 n
- adverse event: Increased urinary frequency, Mild ([2]; Stage 2, dosed 34): 2 n
- adverse event: Increased urinary frequency, Moderate ([2]; Stage 2, dosed 34): 0 n
- adverse event: Nausea, Mild ([2]; Stage 2, dosed 34): 18 n
- adverse event: Nausea, Moderate ([2]; Stage 2, dosed 34): 1 n
- adverse event: Skin lesions-rash, Mild ([2]; Stage 2, dosed 34): 3 n
- adverse event: Skin lesions-rash, Moderate ([2]; Stage 2, dosed 34): 0 n
- adverse event: Urinary retention, Mild ([2]; Stage 2, dosed 34): 1 n
- adverse event: Urinary retention, Moderate ([2]; Stage 2, dosed 34): 0 n
- adverse event: Urinary tract infection, Mild ([2]; Stage 2, dosed 34): 1 n
- adverse event: Urinary tract infection, Moderate ([2]; Stage 2, dosed 34): 2 n
- adverse event: Vomiting, Mild ([2]; Stage 2, dosed 34): 2 n
- adverse event: Vomiting, Moderate ([2]; Stage 2, dosed 34): 0 n
- adverse event: Worsening acid reflux, Mild ([2]; Stage 2, dosed 34): 4 n
- adverse event: Worsening acid reflux, Moderate ([2]; Stage 2, dosed 34): 0 n
- adverse event: Worsening hemorrhoid, Mild ([2]; Stage 2, dosed 34): 1 n
- adverse event: Worsening hemorrhoid, Moderate ([2]; Stage 2, dosed 34): 0 n
- adverse event: Lower GI bleed, Severe ([2]; Stage 2, dosed 34, colonic diverticulosis, polyp, patient on aspirin, Plavix and naproxen, unrelated to ENT-01): 1 n
- adverse event: Blood in urine, Mild [2, 3]: 0 n
- adverse event: Blood in urine, Moderate [2, 3]: 0 n
- adverse event: Loss of appetite, Mild [2, 3]: 0 n
- adverse event: Loss of appetite, Moderate [2, 3]: 0 n
- patients terminated prior to completion because of recurrent dizziness ([2]; Stage 2, two of 34 dosed): 5.8%
